The subject of the series is CCRIS mutagenicity, Ames/micronucleus/aberration tests. In words: CCRIS mutagenicity studies.
[1] abbreviates: Test System: AMES SALMONELLA TYPHIMURIUM, Strain/Indicator: TA98, Metabolic Activation: NONE, Method: PREINCUBATION
The mark [2] stands for this setting: Test System: AMES SALMONELLA TYPHIMURIUM, Strain/Indicator: TA100, Metabolic Activation: NONE, Method: PREINCUBATION
[3] abbreviates: Test System: AMES SALMONELLA TYPHIMURIUM, Strain/Indicator: TA102, Metabolic Activation: NONE, Method: PREINCUBATION

The source made the active and inactive calls. How the calls were made is not given here.

As for `CC(=O)N[C@@H](CS/C(Cl)=C/Cl)C(=O)O`, the mutagenic call by setting is: (Test System: AMES SALMONELLA TYPHIMURIUM, Strain/Indicator: TA2638, Metabolic Activation: NONE, Method: PREINCUBATION) “active; positive”; (Test System: AMES SALMONELLA TYPHIMURIUM, Strain/Indicator: TA2638, Metabolic Activation: RAT, KIDNEY, CYTOSOL, Method: PREINCUBATION) “active; positive”.
`Nc1nc(-c2ccc([N+](=O)[O-])cc2)nc2nc[nH]c12`: the mutagenic call by setting is: (Test System: AMES SALMONELLA TYPHIMURIUM, Strain/Indicator: TA98(1,8-DNP), Metabolic Activation: NONE, Method: PREINCUBATION) “active; positive”; (Test System: AMES SALMONELLA TYPHIMURIUM, Strain/Indicator: TA98(1,8-DNP), Metabolic Activation: RAT, LIVER, S-9, PCB, Method: PREINCUBATION) “active; positive”; (Test System: AMES SALMONELLA TYPHIMURIUM, Strain/Indicator: TA98(NR), Metabolic Activation: NONE, Method: PREINCUBATION) “active; positive”; (Test System: AMES SALMONELLA TYPHIMURIUM, Strain/Indicator: TA98(NR), Metabolic Activation: RAT, LIVER, S-9, PCB, Method: PREINCUBATION) “active; positive”; under setting [1], “active; positive”; (Test System: AMES SALMONELLA TYPHIMURIUM, Strain/Indicator: TA98, Metabolic Activation: RAT, LIVER, S-9, PCB, Method: PREINCUBATION) “active; positive”. Besides, the mutagenic call (Test System: AMES SALMONELLA TYPHIMURIUM, Strain/Indicator: TA100(1,8-DNP), Metabolic Activation: NONE, Method: PREINCUBATION) is “active; positive”; the mutagenic call (Test System: AMES SALMONELLA TYPHIMURIUM, Strain/Indicator: TA100(1,8-DNP), Metabolic Activation: RAT, LIVER, S-9, PCB, Method: PREINCUBATION) is “active; positive”; the mutagenic call (Test System: AMES SALMONELLA TYPHIMURIUM, Strain/Indicator: TA100(NR), Metabolic Activation: NONE, Method: PREINCUBATION) was “active; positive”; the mutagenic call (Test System: AMES SALMONELLA TYPHIMURIUM, Strain/Indicator: TA100(NR), Metabolic Activation: RAT, LIVER, S-9, PCB, Method: PREINCUBATION) was “active; positive”; the mutagenic call under setting [2] was “active; positive”; the mutagenic call (Test System: AMES SALMONELLA TYPHIMURIUM, Strain/Indicator: TA100, Metabolic Activation: RAT, LIVER, S-9, PCB, Method: PREINCUBATION) is “active; positive”. Besides, the mutagenic call runs as follows: (Test System: AMES SALMONELLA TYPHIMURIUM, Strain/Indicator: YG1020, Metabolic Activation: NONE, Method: PREINCUBATION) “active; positive”; (Test System: AMES SALMONELLA TYPHIMURIUM, Strain/Indicator: YG1020, Metabolic Activation: RAT, LIVER, S-9, PCB, Method: PREINCUBATION) “active; positive”; (Test System: AMES SALMONELLA TYPHIMURIUM, Strain/Indicator: YG1021, Metabolic Activation: NONE, Method: PREINCUBATION) “active; positive”; (Test System: AMES SALMONELLA TYPHIMURIUM, Strain/Indicator: YG1021, Metabolic Activation: RAT, LIVER, S-9, PCB, Method: PREINCUBATION) “active; positive”; (Test System: AMES SALMONELLA TYPHIMURIUM, Strain/Indicator: YG1024, Metabolic Activation: NONE, Method: PREINCUBATION) “active; positive”; (Test System: AMES SALMONELLA TYPHIMURIUM, Strain/Indicator: YG1024, Metabolic Activation: RAT, LIVER, S-9, PCB, Method: PREINCUBATION) “active; positive”. Moreover, the mutagenic call by setting is: (Test System: AMES SALMONELLA TYPHIMURIUM, Strain/Indicator: YG1025, Metabolic Activation: NONE, Method: PREINCUBATION) “active; positive”; (Test System: AMES SALMONELLA TYPHIMURIUM, Strain/Indicator: YG1025, Metabolic Activation: RAT, LIVER, S-9, PCB, Method: PREINCUBATION) “active; positive”; (Test System: AMES SALMONELLA TYPHIMURIUM, Strain/Indicator: YG1026, Metabolic Activation: NONE, Method: PREINCUBATION) “active; positive”; (Test System: AMES SALMONELLA TYPHIMURIUM, Strain/Indicator: YG1026, Metabolic Activation: RAT, LIVER, S-9, PCB, Method: PREINCUBATION) “active; positive”; (Test System: AMES SALMONELLA TYPHIMURIUM, Strain/Indicator: YG1029, Metabolic Activation: NONE, Method: PREINCUBATION) “active; positive”; (Test System: AMES SALMONELLA TYPHIMURIUM, Strain/Indicator: YG1029, Metabolic Activation: RAT, LIVER, S-9, PCB, Method: PREINCUBATION) “active; positive”.
As for `CCCC=O`, the mutagenic call (End Point: IN VITRO CHROMOSOMAL ABERRATIONS, Test System: CHINESE HAMSTER OVARY CELLS, Metabolic Activation: NONE) is “inactive; negative”; the mutagenic call (End Point: IN VITRO CHROMOSOMAL ABERRATIONS, Test System: CHINESE HAMSTER OVARY CELLS, Metabolic Activation: RAT, LIVER, S-9, AROCLOR 1254) is “inactive; negative”; the mutagenic call (End Point: In vitro chromosomal aberrations, Test System: Chinese hamster lung (CHL/IU) cells, Metabolic Activation: Rat, Liver, S9, Phenobarbital and 5,6-benzoflavone) is “active; positive (structural changes). ploidy not dose related”; the mutagenic call under setting [2] is “inactive; negative”; the mutagenic call (Test System: AMES SALMONELLA TYPHIMURIUM, Strain/Indicator: TA100, Metabolic Activation: RAT LIVER S-9, AROCLOR 1254, Method: PREINCUBATION) was “inactive; negative”; the mutagenic call under setting [3] was “inactive; negative”. The mutagenic call (Test System: AMES SALMONELLA TYPHIMURIUM, Strain/Indicator: TA102, Metabolic Activation: RAT LIVER S-9, AROCLOR 1254, Method: PREINCUBATION) is “inactive; negative”; the mutagenic call (Test System: AMES SALMONELLA TYPHIMURIUM, Strain/Indicator: TA104, Metabolic Activation: NONE, Method: PREINCUBATION) was “inactive; negative”; the mutagenic call (Test System: AMES SALMONELLA TYPHIMURIUM, Strain/Indicator: TA104, Metabolic Activation: RAT LIVER S-9, AROCLOR 1254, Method: PREINCUBATION) is “inactive; negative”; the mutagenic call (Test System: CHINESE HAMSTER V-79, Strain/Indicator: V-79/6-THIOGUANINE (HGPRT), Metabolic Activation: NONE, Method: REPLATING) is “active; positive”; the mutagenic call (Test System: CHINESE HAMSTER V-79, Strain/Indicator: V-79/OUABAIN (NA/K), Metabolic Activation: NONE, Method: REPLATING) is “active; positive”; the mutagenic call (Test System: UDS HUMAN HEPATOCYTES, Strain/Indicator: THY INCORP, Metabolic Activation: NONE, Method: AUTORADIOGRAPHY) was “inactive; negative”. Moreover, the mutagenic call (Test System: UDS RAT HEPATOCYTES, Strain/Indicator: THY INCORP, Metabolic Activation: NONE, Method: AUTORADIOGRAPHY) is “active; positive”.
`CCc1c(O)c2c(c(O)c1OC)C(=O)C(OC)=C(OC)C2=O`: the mutagenic call is, setting by setting: (Test System: AMES SALMONELLA TYPHIMURIUM, Strain/Indicator: TA98, Metabolic Activation: MICROSOMAL FRACTION, FULLY ACTIVATED, AND RAT LIVER S-9, Method: STANDARD PLATE) “inactive; negative”; (Test System: AMES SALMONELLA TYPHIMURIUM, Strain/Indicator: TA98, Metabolic Activation: MICROSOMAL FRACTION, NON-FULLY ACTIVATED, Method: STANDARD PLATE) “inactive; negative”; (Test System: AMES SALMONELLA TYPHIMURIUM, Strain/Indicator: TA100, Metabolic Activation: MICROSOMAL FRACTION, FULLY ACTIVATED, AND RAT LIVER S-9, Method: STANDARD PLATE) “inactive; negative”; (Test System: AMES SALMONELLA TYPHIMURIUM, Strain/Indicator: TA100, Metabolic Activation: MICROSOMAL FRACTION, NON-FULLY ACTIVATED, Method: STANDARD PLATE) “inactive; negative”; (Test System: AMES SALMONELLA TYPHIMURIUM, Strain/Indicator: TA1537, Metabolic Activation: MICROSOMAL FRACTION, FULLY ACTIVATED, AND RAT LIVER S-9, Method: STANDARD PLATE) “inactive; negative”; (Test System: AMES SALMONELLA TYPHIMURIUM, Strain/Indicator: TA1537, Metabolic Activation: MICROSOMAL FRACTION, NON-FULLY ACTIVATED, Method: STANDARD PLATE) “inactive; negative”.
As for `Cc1ccc(C=O)cc1`, the mutagenic call is “inactive; negative” under setting [1]; “inactive; negative” (Test System: AMES SALMONELLA TYPHIMURIUM, Strain/Indicator: TA98, Metabolic Activation: RAT, LIVER, S-9, AROCLOR 1254, Method: PREINCUBATION); “inactive; negative” under setting [2]; “inactive; negative” (Test System: AMES SALMONELLA TYPHIMURIUM, Strain/Indicator: TA100, Metabolic Activation: RAT, LIVER, S-9, AROCLOR 1254, Method: PREINCUBATION); “inactive; negative” under setting [3]; “inactive; negative” (Test System: AMES SALMONELLA TYPHIMURIUM, Strain/Indicator: TA102, Metabolic Activation: RAT, LIVER, S-9, AROCLOR 1254, Method: PREINCUBATION).
On to `CSCCCCN=C=S`, for which the mutagenic call (End Point: IN VITRO MICRONUCLEUS, Test System: HUMAN T-LYMPHOCYTES, Metabolic Activation: NONE) was “inactive; negative”.

For the origin of these results see PubChem BioAssay AID1259407 (Chemical Carcinogenesis Research Information System (CCRIS), 2018).
